{"source": "paper PMC7973766", "about": "“Characterization of zebrafish GABAA receptor subunits” (Scientific Reports, 2021)", "format_in_all_cases": "cell-based", "key": {"[1]": {"target": "T1, zebrafish β1 homopentameric GABAA receptor (Danio rerio, UniProt F1QPW7)", "T1 construct": "gene gabrb1; homopentamer", "T1 sequence (F1QPW7 29-484)": "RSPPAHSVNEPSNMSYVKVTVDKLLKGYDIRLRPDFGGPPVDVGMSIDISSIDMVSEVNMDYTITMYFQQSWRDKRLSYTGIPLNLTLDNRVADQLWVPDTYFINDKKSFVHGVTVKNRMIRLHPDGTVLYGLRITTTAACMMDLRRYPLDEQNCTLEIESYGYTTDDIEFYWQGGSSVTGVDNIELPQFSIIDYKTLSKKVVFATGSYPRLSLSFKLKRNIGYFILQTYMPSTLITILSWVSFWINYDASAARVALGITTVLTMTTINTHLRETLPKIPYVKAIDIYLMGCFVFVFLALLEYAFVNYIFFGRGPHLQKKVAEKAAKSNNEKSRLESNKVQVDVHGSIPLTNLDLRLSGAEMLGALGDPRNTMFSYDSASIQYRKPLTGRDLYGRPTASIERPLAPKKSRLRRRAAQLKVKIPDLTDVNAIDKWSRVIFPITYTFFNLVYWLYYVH", "experiment": "two-electrode voltage clamp, Xenopus oocytes, GABA-evoked current", "conditions": "agonist at 10 mM only; -50 mV, pH 7.5"}, "[2]": {"target": "T2, zebrafish β4 homopentameric GABAA receptor (Danio rerio, UniProt A0A2R8QJR5)", "T2 construct": "gene gabrb4; homopentamer", "T2 sequence (A0A2R8QJR5 26-482)": "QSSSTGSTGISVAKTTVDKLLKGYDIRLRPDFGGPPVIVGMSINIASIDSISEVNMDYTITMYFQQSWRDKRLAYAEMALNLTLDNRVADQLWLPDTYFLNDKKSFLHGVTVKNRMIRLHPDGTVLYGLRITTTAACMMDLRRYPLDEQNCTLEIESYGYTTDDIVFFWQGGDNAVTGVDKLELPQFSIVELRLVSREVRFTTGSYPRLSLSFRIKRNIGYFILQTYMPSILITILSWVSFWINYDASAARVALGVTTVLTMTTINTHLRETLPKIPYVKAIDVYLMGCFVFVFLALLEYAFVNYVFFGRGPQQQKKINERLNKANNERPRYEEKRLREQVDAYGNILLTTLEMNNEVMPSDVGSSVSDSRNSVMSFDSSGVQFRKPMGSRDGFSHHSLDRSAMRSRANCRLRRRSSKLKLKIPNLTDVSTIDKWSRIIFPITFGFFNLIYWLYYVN", "experiment": "two-electrode voltage clamp, Xenopus oocytes, GABA-evoked current", "conditions": "agonist at 10 mM only; -50 mV, pH 7.5"}, "[3]": {"target": "T3, zebrafish β3 homopentameric GABAA receptor (Danio rerio, UniProt A0A0R4ILP2)", "T3 construct": "gene gabrb3; homopentamer", "T3 sequence (A0A0R4ILP2 26-498)": "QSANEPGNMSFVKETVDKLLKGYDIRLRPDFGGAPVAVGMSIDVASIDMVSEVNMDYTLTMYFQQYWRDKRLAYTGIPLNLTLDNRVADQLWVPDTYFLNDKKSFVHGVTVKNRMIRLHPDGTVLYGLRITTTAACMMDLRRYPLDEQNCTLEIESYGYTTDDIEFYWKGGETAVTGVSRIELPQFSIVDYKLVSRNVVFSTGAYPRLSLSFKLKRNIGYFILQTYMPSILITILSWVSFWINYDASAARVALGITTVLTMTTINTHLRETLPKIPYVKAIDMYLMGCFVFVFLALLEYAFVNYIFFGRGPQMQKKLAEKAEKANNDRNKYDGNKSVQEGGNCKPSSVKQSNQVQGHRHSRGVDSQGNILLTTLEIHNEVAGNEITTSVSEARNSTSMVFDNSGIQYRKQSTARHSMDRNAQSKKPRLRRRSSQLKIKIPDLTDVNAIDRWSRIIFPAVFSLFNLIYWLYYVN", "experiment": "two-electrode voltage clamp, Xenopus oocytes, GABA-evoked current", "conditions": "agonist at 10 mM only; -50 mV, pH 7.5"}, "[4]": {"target": "T3, zebrafish β3 homopentameric GABAA receptor", "experiment": "two-electrode voltage clamp, Xenopus oocytes, etomidate-evoked current"}}}
{"smiles": "NCCCC(=O)O", "note": "[GABA]", "values": [{"measurement": "two-electrode voltage clamp, Xenopus oocytes, GABA-evoked current", "setting": "[1]", "value": "either single β subunit yielded small currents"}, {"measurement": "two-electrode voltage clamp, Xenopus oocytes, GABA-evoked current", "setting": "[2]", "value": "either single β subunit yielded small currents"}, {"measurement": "two-electrode voltage clamp, Xenopus oocytes, GABA-evoked current", "setting": "[3]", "value": "either single β subunit yielded small currents"}]}
{"smiles": "CCOC(=O)c1cncn1[C@H](C)c1ccccc1", "note": "[etomidate]", "values": [{"measurement": "EC50", "setting": "[4]", "value": "30.3 ± 5.7", "unit": "µM"}]}
